One assay has as its target Tumor necrosis factor (Homo sapiens, UniProt P01375). Put plainly: TNFa-triggered NF-kB activation inhibitors, SAR follow-up, cell-based, revised (AID 2337). It is filed as functional.
The target of assay [1] is T1, Nucleotide-binding oligomerization domain-containing protein 1 (Homo sapiens, UniProt Q9Y239).
T1 sequence (Q9Y239 whole entry): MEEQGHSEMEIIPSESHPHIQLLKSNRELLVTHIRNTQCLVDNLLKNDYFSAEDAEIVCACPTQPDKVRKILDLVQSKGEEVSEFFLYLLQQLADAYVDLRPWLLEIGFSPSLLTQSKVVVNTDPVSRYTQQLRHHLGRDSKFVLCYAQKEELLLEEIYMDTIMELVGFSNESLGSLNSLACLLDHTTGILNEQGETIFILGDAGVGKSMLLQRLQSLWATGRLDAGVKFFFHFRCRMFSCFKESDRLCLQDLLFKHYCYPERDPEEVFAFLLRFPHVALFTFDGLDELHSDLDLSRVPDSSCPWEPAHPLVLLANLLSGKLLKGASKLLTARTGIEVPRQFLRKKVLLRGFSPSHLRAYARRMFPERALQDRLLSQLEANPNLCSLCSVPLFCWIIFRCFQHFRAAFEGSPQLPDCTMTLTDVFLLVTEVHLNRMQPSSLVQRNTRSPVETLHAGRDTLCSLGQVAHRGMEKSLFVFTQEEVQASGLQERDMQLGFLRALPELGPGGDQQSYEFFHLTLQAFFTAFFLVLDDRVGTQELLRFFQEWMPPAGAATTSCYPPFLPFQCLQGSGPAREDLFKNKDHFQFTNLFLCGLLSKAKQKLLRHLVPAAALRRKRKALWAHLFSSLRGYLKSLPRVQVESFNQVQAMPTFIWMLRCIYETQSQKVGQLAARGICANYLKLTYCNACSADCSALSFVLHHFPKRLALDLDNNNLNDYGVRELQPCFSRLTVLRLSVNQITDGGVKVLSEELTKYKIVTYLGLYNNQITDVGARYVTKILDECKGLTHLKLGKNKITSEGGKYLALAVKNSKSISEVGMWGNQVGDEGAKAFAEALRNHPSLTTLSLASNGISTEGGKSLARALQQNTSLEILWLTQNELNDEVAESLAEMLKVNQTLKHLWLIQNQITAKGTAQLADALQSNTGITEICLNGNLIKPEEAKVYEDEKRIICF
The assay can be described thus: NOD1 signaling inhibitors, SAR follow-up, revised (AID 2333). In kind it is functional.

Assay [2] has as its target Luciferin 4-monooxygenase (Photinus pyralis, UniProt P08659). Put plainly: firefly luciferase enzyme inhibitors, dose response, biochemical, dry powder samples, plate reader (AID 588451).
Assay [3] relates to H4. Put plainly: inhibitors of control reporter signal in H4 cells – cell-based, plate reader, dry powder samples, counter-screen for prion reporter project, dose response (AID 540255). In kind it is functional. The conditions noted are these: Homo sapiens.
In assay [4] the test system is H4. Put plainly: Amyloid Precursor 5' UTR neuroblastoma cell reporter line Measured in Cell-Based System Using Plate Reader - 2078-04_Inhibitor_Dose_DryPowder_Activity. [Related pubchem assays (depositor defined):AID488894]. It is filed as functional. The conditions noted are these: Homo sapiens.
Assay [5] concerns H4. The assay can be described thus: Inhibitors of Prion Protein 5' UTR mRNA Measured in Cell-Based System Using Plate Reader - 2078-01_Inhibitor_Dose_DryPowder_Activity. [Related pubchem assays (depositor defined):AID488894]. In kind it is functional. The conditions noted are these: Homo sapiens.
The next assay concerns HEK293. The assay can be described thus: cells. The conditions noted are these: Homo sapiens.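 Note: cells exposed to compound for 14 hours overnight before viability readout.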
In assay [6] the target is DNA dC->dU-editing enzyme APOBEC-3G (Homo sapiens, UniProt Q9HC16). Put plainly: APOBEC3G deaminase inhibitors, SAR follow-up, biochemical, fluorescence, single-stranded DNA substrate (AID 602136). In kind it is functional. Conditions: read-out: IC50_Mean.
Assay [7] concerns the target DNA dC->dU-editing enzyme APOBEC-3A (Homo sapiens, UniProt P31941). Put plainly: SAR analysis of small molecule inhibitors of APOBEC3A DNA Deaminase via a fluorescence-based single-stranded DNA deaminase assay. In kind it is functional. Conditions: read-out: IC50_Mean.
A short description of assay [8]: SAR analysis of small molecule activators of Apaf-1 using a LZ-Caspase-9/Caspase-3 Fluorescent Selectivity assay - Set 2. It is filed as functional. Conditions: read-out: EC50_Mean.
The target in assay [9] is T2, Apoptotic protease-activating factor 1 (Homo sapiens, UniProt O14727).
T2 sequence (O14727 whole entry): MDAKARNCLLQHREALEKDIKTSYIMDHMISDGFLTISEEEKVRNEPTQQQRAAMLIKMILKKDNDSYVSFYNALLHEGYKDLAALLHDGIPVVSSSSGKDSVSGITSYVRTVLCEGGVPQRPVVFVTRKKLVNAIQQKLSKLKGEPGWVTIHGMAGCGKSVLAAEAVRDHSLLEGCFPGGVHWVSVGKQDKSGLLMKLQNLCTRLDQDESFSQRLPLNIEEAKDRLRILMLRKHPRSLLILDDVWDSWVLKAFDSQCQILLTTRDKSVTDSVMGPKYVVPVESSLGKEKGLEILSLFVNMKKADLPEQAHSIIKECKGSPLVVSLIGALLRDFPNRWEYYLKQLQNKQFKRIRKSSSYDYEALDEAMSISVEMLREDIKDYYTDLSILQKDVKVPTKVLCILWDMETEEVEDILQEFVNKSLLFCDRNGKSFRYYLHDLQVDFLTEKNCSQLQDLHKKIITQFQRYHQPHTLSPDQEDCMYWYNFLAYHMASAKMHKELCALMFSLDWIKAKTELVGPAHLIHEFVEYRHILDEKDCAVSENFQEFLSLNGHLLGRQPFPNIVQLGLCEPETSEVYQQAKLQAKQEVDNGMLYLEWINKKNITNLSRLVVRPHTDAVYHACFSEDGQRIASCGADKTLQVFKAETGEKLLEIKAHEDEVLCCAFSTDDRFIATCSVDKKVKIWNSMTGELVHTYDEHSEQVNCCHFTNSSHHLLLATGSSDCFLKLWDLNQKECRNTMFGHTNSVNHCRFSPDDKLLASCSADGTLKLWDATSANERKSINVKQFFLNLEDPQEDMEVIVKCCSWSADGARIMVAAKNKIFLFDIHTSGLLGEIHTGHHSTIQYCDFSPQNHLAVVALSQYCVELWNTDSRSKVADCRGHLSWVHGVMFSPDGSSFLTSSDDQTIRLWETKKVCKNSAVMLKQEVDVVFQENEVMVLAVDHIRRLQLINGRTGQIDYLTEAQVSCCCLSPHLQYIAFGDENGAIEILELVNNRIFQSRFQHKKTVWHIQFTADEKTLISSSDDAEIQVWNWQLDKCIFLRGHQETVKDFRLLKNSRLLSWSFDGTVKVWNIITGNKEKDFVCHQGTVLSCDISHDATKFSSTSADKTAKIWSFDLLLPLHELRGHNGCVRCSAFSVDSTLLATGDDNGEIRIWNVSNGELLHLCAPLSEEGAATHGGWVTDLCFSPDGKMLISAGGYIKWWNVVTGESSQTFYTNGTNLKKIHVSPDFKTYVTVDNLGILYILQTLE
Put plainly: SAR analysis of small molecule Activators of Apaf-1 in a Fluorescent assay. In kind it is functional. The conditions noted are these: read-out: EC50_Mean.

Assay [10] concerns the target T2, Apoptotic protease-activating factor 1. The assay can be described thus: SAR analysis of small molecule Activators of Apaf-1 in a Fluorescent assay - set 2. The conditions noted are these: read-out: EC50_Mean. In kind it is functional.
Assay [11] addresses Casein kinase I isoform alpha (Homo sapiens, UniProt P48729). It is filed as functional.
For assay [12], the target named is G protein-coupled receptor kinase 5 (Homo sapiens, UniProt P34947). The assay can be described thus: Navigating the Kinome. Panel member name: GPRK5. In kind it is functional.
Assay [13] deals with Cell division cycle 7-related protein kinase (Homo sapiens, UniProt O00311). It is filed as functional.
Chain of Cell division cycle 7-related protein kinase (O00311 whole entry): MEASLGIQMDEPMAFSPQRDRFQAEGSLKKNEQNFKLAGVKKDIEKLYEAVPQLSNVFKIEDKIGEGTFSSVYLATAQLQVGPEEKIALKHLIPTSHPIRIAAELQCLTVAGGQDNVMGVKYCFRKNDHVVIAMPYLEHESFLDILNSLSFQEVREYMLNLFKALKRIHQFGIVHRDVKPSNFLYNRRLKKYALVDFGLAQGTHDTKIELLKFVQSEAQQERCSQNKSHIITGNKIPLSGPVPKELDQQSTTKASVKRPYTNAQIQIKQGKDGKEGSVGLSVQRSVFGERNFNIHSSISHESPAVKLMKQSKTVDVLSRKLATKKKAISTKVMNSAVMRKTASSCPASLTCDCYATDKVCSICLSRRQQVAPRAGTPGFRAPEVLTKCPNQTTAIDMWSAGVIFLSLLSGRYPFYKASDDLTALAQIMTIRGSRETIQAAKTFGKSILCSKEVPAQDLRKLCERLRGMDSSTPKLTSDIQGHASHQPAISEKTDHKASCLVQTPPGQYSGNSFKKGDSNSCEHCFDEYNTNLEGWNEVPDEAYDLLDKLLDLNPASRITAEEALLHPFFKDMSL
Assay [14] addresses Mast/stem cell growth factor receptor Kit (Homo sapiens, UniProt P10721). It is filed as functional.
Assay [15] concerns the target Tyrosine-protein kinase Blk (Homo sapiens, UniProt P51451). In kind it is functional.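 Note: obtained as one member of a kinome-wide kinase assay panel.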
The target in assay [16] is Mitogen-activated protein kinase 13 (Homo sapiens, UniProt O15264). In kind it is functional.
Chain of Mitogen-activated protein kinase 13 (O15264 whole entry): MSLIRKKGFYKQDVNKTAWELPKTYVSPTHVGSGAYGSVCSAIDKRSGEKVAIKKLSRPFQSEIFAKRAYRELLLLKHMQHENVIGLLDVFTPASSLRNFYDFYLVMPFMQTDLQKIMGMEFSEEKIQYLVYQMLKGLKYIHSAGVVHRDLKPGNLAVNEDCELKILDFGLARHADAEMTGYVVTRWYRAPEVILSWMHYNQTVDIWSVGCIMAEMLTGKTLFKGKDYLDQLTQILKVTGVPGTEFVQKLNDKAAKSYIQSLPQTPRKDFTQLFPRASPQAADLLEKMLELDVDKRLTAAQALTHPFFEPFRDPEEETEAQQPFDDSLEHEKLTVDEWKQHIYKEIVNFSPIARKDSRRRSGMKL
Assay [17] has as its target Mitogen-activated protein kinase kinase kinase kinase 2 (Homo sapiens, UniProt Q12851). It is filed as functional.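 Note: measured as one member of a kinome-wide kinase panel, with MAP4K2 as the panel entry.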
Assay [18] addresses Mitogen-activated protein kinase kinase kinase kinase 5 (Homo sapiens, UniProt Q9Y4K4). In kind it is functional.
For assay [19], the target named is Serine/threonine-protein kinase pim-1 (Homo sapiens, UniProt P11309). It is filed as functional.
Assay [20] concerns the target Homeodomain-interacting protein kinase 2 (Homo sapiens, UniProt Q9H2X6). In kind it is functional.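 Note: measured within a kinome-wide kinase profiling panel, HIPK2 being one panel member.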
In assay [21] the target is MAP kinase-interacting serine/threonine-protein kinase 2 (Homo sapiens, UniProt Q9HBH9). It is filed as functional.
For assay [22], the target named is Interleukin-1 receptor-associated kinase 4 (Homo sapiens, UniProt Q9NWZ3). It is filed as functional.
Chain of Interleukin-1 receptor-associated kinase 4 (Q9NWZ3 whole entry): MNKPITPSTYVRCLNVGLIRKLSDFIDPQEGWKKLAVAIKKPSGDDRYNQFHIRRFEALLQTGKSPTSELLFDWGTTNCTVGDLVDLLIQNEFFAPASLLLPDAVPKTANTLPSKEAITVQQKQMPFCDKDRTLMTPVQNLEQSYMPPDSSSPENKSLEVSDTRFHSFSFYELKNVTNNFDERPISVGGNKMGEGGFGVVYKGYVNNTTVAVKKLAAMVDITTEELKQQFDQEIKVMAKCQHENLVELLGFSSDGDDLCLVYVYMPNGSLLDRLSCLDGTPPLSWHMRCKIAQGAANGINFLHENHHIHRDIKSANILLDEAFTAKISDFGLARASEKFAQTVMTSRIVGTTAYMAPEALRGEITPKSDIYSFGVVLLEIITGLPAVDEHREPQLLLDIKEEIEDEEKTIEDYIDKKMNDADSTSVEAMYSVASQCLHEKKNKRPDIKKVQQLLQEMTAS
Assay [23] deals with Cyclin-dependent kinase 7 (Homo sapiens, UniProt P50613). It is filed as functional.
Assay [24] addresses Glycogen synthase kinase-3 beta (Homo sapiens, UniProt P49841). It is filed as functional.
Assay [25] deals with Cyclin-dependent kinase 9 (Homo sapiens, UniProt P50750). It is filed as functional.
Chain of Cyclin-dependent kinase 9 (P50750 whole entry): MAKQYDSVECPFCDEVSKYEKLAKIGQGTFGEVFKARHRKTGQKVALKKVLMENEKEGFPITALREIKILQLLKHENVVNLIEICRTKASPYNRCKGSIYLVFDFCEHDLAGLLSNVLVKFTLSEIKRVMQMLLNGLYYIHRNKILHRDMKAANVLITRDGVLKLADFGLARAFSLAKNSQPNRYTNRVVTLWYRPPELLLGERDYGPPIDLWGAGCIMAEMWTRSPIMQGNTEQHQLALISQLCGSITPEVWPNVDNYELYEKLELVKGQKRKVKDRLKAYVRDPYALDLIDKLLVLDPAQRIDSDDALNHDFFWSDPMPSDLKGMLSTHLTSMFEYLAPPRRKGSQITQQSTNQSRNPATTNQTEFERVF
For assay [26], the target named is cAMP-dependent protein kinase catalytic subunit alpha (Homo sapiens, UniProt P17612). In kind it is functional.
The target of assay [27] is Dual specificity protein kinase CLK4 (Homo sapiens, UniProt Q9HAZ1). It is filed as functional.
Chain of Dual specificity protein kinase CLK4 (Q9HAZ1 whole entry): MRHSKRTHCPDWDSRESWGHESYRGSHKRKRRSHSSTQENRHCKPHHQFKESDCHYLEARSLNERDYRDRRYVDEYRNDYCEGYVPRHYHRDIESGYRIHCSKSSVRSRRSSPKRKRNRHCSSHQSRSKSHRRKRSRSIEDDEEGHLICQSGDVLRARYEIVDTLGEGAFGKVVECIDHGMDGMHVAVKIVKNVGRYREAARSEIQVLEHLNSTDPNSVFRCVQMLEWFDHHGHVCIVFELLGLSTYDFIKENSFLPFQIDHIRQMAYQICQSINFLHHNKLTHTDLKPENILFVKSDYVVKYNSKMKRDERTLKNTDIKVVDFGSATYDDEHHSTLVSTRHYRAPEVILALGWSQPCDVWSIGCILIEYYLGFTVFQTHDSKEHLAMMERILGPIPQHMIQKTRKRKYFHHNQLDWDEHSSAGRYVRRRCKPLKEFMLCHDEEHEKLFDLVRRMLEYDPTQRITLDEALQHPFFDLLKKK
Assay [28] addresses Mitogen-activated protein kinase kinase kinase kinase 4 (Homo sapiens, UniProt O95819). It is filed as functional.

This is an account of results in ChEMBL document CHEMBL1201862, “PubChem BioAssay data set” (2004).

Several values for one entry are separate records, joined by “and”; a condition that tells them apart may be missing. Equal entries are not always repeated. Activity calls are given as the source filed them.

Chain of Mitogen-activated protein kinase kinase kinase kinase 2 (Q12851 whole entry): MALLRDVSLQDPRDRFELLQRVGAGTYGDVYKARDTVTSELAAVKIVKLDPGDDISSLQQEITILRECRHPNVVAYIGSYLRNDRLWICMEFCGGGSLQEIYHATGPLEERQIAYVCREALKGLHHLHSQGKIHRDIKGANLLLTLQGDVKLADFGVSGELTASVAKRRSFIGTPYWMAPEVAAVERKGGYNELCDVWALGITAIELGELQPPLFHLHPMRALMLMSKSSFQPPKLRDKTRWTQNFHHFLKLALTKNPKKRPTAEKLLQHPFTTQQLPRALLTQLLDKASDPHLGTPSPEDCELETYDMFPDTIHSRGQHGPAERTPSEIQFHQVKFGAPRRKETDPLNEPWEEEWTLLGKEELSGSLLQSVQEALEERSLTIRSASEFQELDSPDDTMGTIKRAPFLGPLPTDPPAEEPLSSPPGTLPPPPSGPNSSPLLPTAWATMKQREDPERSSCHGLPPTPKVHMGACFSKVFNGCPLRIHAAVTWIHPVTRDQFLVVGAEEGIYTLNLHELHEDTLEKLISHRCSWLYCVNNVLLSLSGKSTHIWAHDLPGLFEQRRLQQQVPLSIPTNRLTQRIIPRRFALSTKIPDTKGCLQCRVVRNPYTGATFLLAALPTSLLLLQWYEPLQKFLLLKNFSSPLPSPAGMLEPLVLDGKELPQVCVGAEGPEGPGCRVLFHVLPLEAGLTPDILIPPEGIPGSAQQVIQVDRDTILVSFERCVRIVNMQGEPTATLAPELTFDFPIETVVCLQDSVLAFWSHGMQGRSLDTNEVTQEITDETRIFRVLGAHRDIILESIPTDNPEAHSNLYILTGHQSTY
Chain of Casein kinase I isoform alpha (P48729 whole entry, canonical isoform): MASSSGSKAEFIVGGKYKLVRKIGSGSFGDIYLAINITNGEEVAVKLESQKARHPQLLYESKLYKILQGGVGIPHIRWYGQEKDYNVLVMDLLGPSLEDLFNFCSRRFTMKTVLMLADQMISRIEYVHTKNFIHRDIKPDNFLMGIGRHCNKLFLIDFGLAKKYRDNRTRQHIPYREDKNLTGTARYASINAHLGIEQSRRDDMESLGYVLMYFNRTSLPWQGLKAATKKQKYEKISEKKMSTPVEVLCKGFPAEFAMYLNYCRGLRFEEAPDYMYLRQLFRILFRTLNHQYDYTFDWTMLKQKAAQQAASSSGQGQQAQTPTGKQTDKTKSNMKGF
Chain of Mitogen-activated protein kinase kinase kinase kinase 4 (O95819 whole entry): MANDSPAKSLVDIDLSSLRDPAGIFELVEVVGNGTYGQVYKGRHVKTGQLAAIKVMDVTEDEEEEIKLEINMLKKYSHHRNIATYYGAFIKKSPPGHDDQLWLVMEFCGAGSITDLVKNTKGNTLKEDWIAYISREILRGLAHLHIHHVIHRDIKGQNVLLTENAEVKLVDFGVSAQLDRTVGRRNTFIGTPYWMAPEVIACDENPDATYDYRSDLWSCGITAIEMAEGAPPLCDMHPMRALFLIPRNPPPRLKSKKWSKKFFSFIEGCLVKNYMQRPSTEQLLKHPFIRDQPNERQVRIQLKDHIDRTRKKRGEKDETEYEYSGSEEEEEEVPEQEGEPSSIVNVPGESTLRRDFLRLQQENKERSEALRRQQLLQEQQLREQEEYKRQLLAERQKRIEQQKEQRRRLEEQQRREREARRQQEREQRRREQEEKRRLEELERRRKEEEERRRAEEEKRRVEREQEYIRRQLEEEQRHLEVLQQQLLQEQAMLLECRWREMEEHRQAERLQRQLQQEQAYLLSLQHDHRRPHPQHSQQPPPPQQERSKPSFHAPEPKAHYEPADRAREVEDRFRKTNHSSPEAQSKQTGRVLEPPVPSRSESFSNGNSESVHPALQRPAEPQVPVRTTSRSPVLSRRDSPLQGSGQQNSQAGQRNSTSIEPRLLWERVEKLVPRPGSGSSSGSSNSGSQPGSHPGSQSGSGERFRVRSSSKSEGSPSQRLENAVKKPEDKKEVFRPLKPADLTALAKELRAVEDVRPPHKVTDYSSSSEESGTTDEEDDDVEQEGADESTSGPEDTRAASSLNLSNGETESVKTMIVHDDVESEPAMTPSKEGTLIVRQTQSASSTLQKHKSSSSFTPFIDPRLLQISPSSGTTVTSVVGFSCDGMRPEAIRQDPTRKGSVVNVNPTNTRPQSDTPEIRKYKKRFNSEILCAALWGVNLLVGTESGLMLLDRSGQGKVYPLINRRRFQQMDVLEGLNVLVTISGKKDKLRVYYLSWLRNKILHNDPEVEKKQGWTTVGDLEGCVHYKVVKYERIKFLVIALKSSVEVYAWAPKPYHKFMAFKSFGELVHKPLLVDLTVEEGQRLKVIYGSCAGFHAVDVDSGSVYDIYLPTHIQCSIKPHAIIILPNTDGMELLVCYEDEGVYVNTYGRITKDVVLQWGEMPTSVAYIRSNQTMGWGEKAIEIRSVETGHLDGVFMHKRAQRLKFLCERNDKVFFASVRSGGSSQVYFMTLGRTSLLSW
Chain of DNA dC->dU-editing enzyme APOBEC-3A (P31941 whole entry): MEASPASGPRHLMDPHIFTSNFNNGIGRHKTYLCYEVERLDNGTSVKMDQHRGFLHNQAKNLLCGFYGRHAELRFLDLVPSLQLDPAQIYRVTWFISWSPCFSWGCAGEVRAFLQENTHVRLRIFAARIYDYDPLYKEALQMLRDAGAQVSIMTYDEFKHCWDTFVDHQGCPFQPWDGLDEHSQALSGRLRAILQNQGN

Regarding `CC(C)(C)c1ccc(-c2nc3ccccc3s2)cc1`, the IC50 at Tumor necrosis factor was 246 nM (active); in assay [1] it was 31.8 nM (active); in the assay with HEK293, > 20000 nM (inactive). Also, the concentration at half-maximal activity (AC50) is 25800 nM (active) in assay [2], 205 nM (active) with H4 [3], 2.26 nM (active) in the assay on H4 [4] and 11 nM (active) in the assay on H4 [5].

With `CCCn1c(=O)c2ccc(C(=O)NC(C)C)cc2n2c(=O)n(Cc3c(F)cccc3Cl)nc12`, the IC50 in assay [6] and in assay [7] was > 99000 nM (inactive) in each case.

As for `Cc1nn(CC(C)C(=O)O)c(C)c1Br` (stereo unspecified), the EC50 in assay [8] was > 100 µM (inactive) and > 99 µM (inactive); in [9], 5130 nM (active); in [10] it was 4.75 µM (active) and 3.41 µM (active) and 12.7 µM (active).

As for `NS(=O)(=O)OCC1CC(n2ccc3c(NC4CCc5ccccc54)ncnc32)CC1O` (stereo unspecified), the values for the inhibition constant (Ki) in assay [11] and in assay [12] were 3160 nM (active) and 2510 nM (active), respectively.

On to `CC1(O)CC(c2nc(-c3ccc4ccc(-c5ccccc5)nc4c3)c3c(N)nccn23)C1` (stereo unspecified), for which the Ki in [13] is > 1260 nM (inactive); in assay [14], > 1260 nM (inactive); in assay [15], 316 nM (active); in assay [16] it was > 7940 nM (inactive); in assay [17] it was 794 nM (active); in [18] it was 316 nM (active).

Regarding `CN(C)c1cc(-c2ccncc2)cc2[nH]nc(N)c12`, the Ki in [19] is 5010 nM (active); in assay [13] it was 12.6 nM (active); in assay [20], 2000 nM (active); in [21] it was 126 nM (active); in assay [22] it was 398 nM (active); in assay [23], 200 nM (active). Besides, the Ki in [24] was 1260 nM (active); in assay [25], 100 nM (active); in assay [26], 501 nM (active); in [27] it was 12.6 nM (active); in [28] it was 100 nM (active).
